Results taken from US10106536B2, “Imidazo(4,5-B) pyridin-2-yl amides as KV7 channel activators” (Knopp Biosciences LLC, priority 2013, dated 2018).

Target: T1, Kv7.2/7.3 (Homo sapiens, UniProt O43525+O43526)
T1 construct: host or cells: HEK cells, tetracycline-inducible expression
Test: Kv7.2/7.3 activation assay, QPatch planar patch-clamp, single concentration screen
Format: cell-based
Conditions: Kv7.2/Kv7.3 co-expressing HEK cells, steady-state current at end of 1 s pulse to −30 mV; for Kv7.2/7.3 Activity at 10 μM (increase in current over baseline): compound 10 μM; for Kv7.2/7.3 Activity at 3 μM (increase in current over baseline): compound 3 μM
Procedure: Kv7.2/7.3 Activation Assay
The ability of compounds to potentiate K-currents in KV7.2/7.3 containing HEK cells was assessed using planar patch-clamp on the QPatch automated screening platform.
The hKV7.2/7.3 cell line was obtained from Chantest (Cleveland, Ohio 44128) cat.# CT6147. These HEK cells will express the Kv7.2/7.3 ion channels when induced.
Cell Culture: Cells were maintained in a media containing DMEM/F12; 50/50 (GIBCO cat.#11330), 10% Fetal Bovine Serum (FBS) (GIBCO cat.#26140), 100 units/mL Penicillin-Streptomycin (GIBCO cat.#15140), 0.005 mg/mL Blasticidin (INVIVOGEN cat.# ant-bl-1), 0.5 mg/mL Geneticin (GIBCO cat.#10131), 0.1 mg/mL Zeocin (GIBCO cat.# R25001). Cells used in the electrophysiology assay were maintained in a media without Blasticidin, Geneticin and Zeocin for 2 days and channel expression was induced by adding tetracycline (BIOLINE cat.# BIO-87030) at a final concentration of […]. Cells were grown in T-175 flask to ˜75% confluency. Currents were recorded 24 hours after channel induction.
Test compounds were prepared by performing serial dilutions on a Biomek NX^P (BECKMAN COULTER). Final dilutions were made in external recording solution with a final DMSO concentration of 0.1% DMSO. For single concentration screens each plate had 10 μM retigabine as a positive control and 0.1% DMSO as a negative control.
On the day of the experiment cells were washed with Hank's Balanced Salt Solution (HBBS) (GIBCO cat.#14175) and harvested with Tryple (GIBCO cat.#12604). Cells were then centrifuged at 2000 rpm for 5 minutes and resuspended in CHO-S-SFM (GIBCO cat.#12052) at ˜3×10^6 cells/mL. Cells were stirred for 30 minutes before experiments were started. External recording solution contained (in mM): NaCl (145), KCl (4), CaCl2 (2), MgCl2 (1), HEPES (10) and Glucose (10); pH was adjusted to 7.4 with NaOH and the osmolarity was adjusted to 300-305 mOsM with sucrose if necessary. Internal solution contained (in mM): KCl (125), KF (10), EGTA (5), Na2ATP (5), MgCl2 (3.2), HEPES (5); pH was adjusted to 7.2 with KOH and the osmolarity was adjusted to 298-302 mOsM with sucrose.
Potassium channel activity was measured on the QPatch HTX (Sophion Bioscience) using QPlates with 48-wells/plate. Each cell was taken as an independent experiment and only one compound was tested per well. Potassium channel activity was elicited by holding at −80 mV and stepping to −30 mV for 1 s followed by a 100 ms pulse to −120 mV.
Baseline conditions were obtained by recording 5 sweeps in the external solution only, this was repeated for three applications of the external solution. The effect of test compounds on elicited current was then assessed by recording 5 sweeps in the presence of a 3 μM or 10 μM compound solution. The steady-state current at the end of the 1 s pulse to −30 mV was measured to determine the fold increase from baseline.

Row | Structure (SMILES) | Kv7.2/7.3 Activity at 10 μM (increase in current over baseline) | Kv7.2/7.3 Activity at 3 μM (increase in current over baseline)
1 | O=C(CC1CCCCC1)Nc1nc2ccc(C(F)(F)F)nc2n1C1CCC1 [Example 43, N-(3-cyclobutyl-5-(trifluoromethyl)-3H-imidazo[4,5-b]pyridin-2-yl)-2-cyclohexylacetamide] | +++ (>6-fold increase over baseline (+++)) | 
2 | O=C(CC(C(F)(F)F)C(F)(F)F)Nc1nc2ccc(Cl)nc2n1C1CCC1 [Example 6, N-(5-chloro-3-cyclobutyl-3H-imidazo[4,5-b]pyridin-2-yl)-4,4,4-trifluoro-3-(trifluoromethyl)butanamide] |  | − (<1.2-fold increase over baseline (−))
3 | CC1(C)[C@H]2CC[C@@H](CC(=O)Nc3nc4ccc(C(F)(F)F)nc4n3C3CCC3)[C@@H]1C2 [Example 47, N-(3-cyclobutyl-5-(trifluoromethyl)-3H-imidazo[4,5-b]pyridin-2-yl)-2-((1S,2S,5S)-6,6-dimethylbicyclo[3.1.1]heptan-2-yl)acetamide] | +++ (>6-fold increase over baseline (+++)) | 
4 | CC(C)(C)CC(=O)Nc1nc2ccc(Cl)nc2n1-c1ccc(F)cc1 [Example 105, N-(5-chloro-3-(4-fluorophenyl)-3H-imidazo[4,5-b]pyridin-2-yl)-3,3-dimethylbutanamide] | +++ (>6-fold increase over baseline (+++)) | 
5 | O=C(CCC1(C(F)(F)F)CC1)Nc1nc2ccc(Cl)nc2n1C1CCC1 [Example 223, N-(5-chloro-3-cyclobutyl-3H-imidazo[4,5-b]pyridin-2-yl)-3-(1-(trifluoromethyl)cyclopropyl)propanamide] |  | − (<1.2-fold increase over baseline (−))
6 | CC1(C)CCC(CC(=O)Nc2nc3ccc(C(F)(F)F)nc3n2C2CCC2)O1 (stereo not shown) [Example 96, N-(3-cyclobutyl-5-(trifluoromethyl)-3H-imidazo[4,5-b]pyridin-2-yl)-2-(5,5-dimethyltetrahydrofuran-2-yl)acetamide] | +++ (>6-fold increase over baseline (+++)) | 
7 | CCOCC(=O)Nc1nc2ccc(Cl)nc2n1C1CCC1 [Example 34, N-(5-chloro-3-cyclobutyl-3H-imidazo[4,5-b]pyridin-2-yl)-2-ethoxyacetamide] | − (<1.2-fold increase over baseline (−)) | 
8 | CC(C)CC(=O)Nc1nc2ccc(C(F)(F)F)nc2n1C1CCC1 [Example 42, N-(3-cyclobutyl-5-(trifluoromethyl)-3H-imidazo[4,5-b]pyridin-2-yl)-3-methylbutanamide] | +++ (>6-fold increase over baseline (+++)) | 
9 | O=C(CCc1ccccc1)Nc1nc2ccc(Cl)nc2n1C1CCC1 [Example 35, N-(5-chloro-3-cyclobutyl-3H-imidazo[4,5-b]pyridin-2-yl)-3-phenylpropanamide] | +++ (>6-fold increase over baseline (+++)) | 
10 | O=C(CCC1CCOC1)Nc1nc2ccc(C(F)(F)F)nc2n1C1CCC1 (stereo not shown) [Example 124, N-(3-cyclobutyl-5-(trifluoromethyl)-3H-imidazo[4,5-b]pyridin-2-yl)-3-(tetrahydrofuran-3-yl)propanamide] | +++ (>6-fold increase over baseline (+++)) | 
11 | CC1(C)[C@H]2CC[C@@H](CC(=O)Nc3nc4cccnc4n3C3CCC3)[C@@H]1C2 [Example 24, N-(3-cyclobutyl-3H-imidazo[4,5-b]pyridin-2-yl)-2-((1S,2S,5S)-6,6-dimethylbicyclo[3.1.1]heptan-2-yl)acetamide] | +++ (>6-fold increase over baseline (+++)) | +++ (>6-fold increase over baseline (+++))
12 | CC(C)Oc1ccc2nc(NC(=O)CCOC(C)(C)C)n(CC(F)(F)F)c2n1 [Example 120, 3-(tert-butoxy)-N-(5-isopropoxy-3-(2,2,2-trifluoroethyl)-3H-imidazo[4,5-b]pyridin-2-yl)propanamide] | +++ (>6-fold increase over baseline (+++)) | 
13 | CC(C)(C)CC(=O)Nc1nc2ccc(-c3cccnc3)nc2n1C1CCC1.Cl [Example 151, N-(3-cyclobutyl-5-(pyridin-3-yl)-3H-imidazo[4,5-b]pyridin-2-yl)-3,3-dimethylbutanamide hydrochloride] |  | − (<1.2-fold increase over baseline (−))
14 | CC(C)(C)OCCC(=O)Nc1nc2ccc(C3CC3)nc2n1CC(F)(F)F [Example 108, 3-(tert-butoxy)-N-(5-cyclopropyl-3-(2,2,2-trifluoroethyl)-3H-imidazo[4,5-b]pyridin-2-yl)propanamide] |  | +++ (>6-fold increase over baseline (+++))
15 | Cc1ccc2nc(NC(=O)CCOC(C)(C)C)n(CC(F)(F)F)c2n1 [Example 132, 3-(tert-butoxy)-N-(5-methyl-3-(2,2,2-trifluoroethyl)-3H-imidazo[4,5-b]pyridin-2-yl)propanamide] | +++ (>6-fold increase over baseline (+++)) | 
16 | O=C(Cc1ccc(F)cc1)Nc1nc2cc(Cl)cnc2n1C1CCC1 [Example 58, N-(6-chloro-3-cyclobutyl-3H-imidazo[4,5-b]pyridin-2-yl)-2-(4-fluorophenyl)acetamide] |  | − (<1.2-fold increase over baseline (−))
17 | O=C(CCC1CCCC1)Nc1nc2ccc(Cl)nc2n1C1CCC1 [Example 27, N-(5-chloro-3-cyclobutyl-3H-imidazo[4,5-b]pyridin-2-yl)-3-cyclopentylpropanamide] | +++ (>6-fold increase over baseline (+++)) | 
18 | CC(C)Cn1c(NC(=O)CC(C)(C)C)nc2ccc(Cl)nc21 [Example 36, N-(5-chloro-3-isobutyl-3H-imidazo[4,5-b]pyridin-2-yl)-3,3-dimethylbutanamide] | +++ (>6-fold increase over baseline (+++)) | 
19 | O=C(CC1CCCCC1)Nc1nc2ccc(Cl)nc2n1C1CCC1 [Example 29, N-(5-chloro-3-cyclobutyl-3H-imidazo[4,5-b]pyridin-2-yl)-2-cyclohexylacetamide] | +++ (>6-fold increase over baseline (+++)) | 
20 | CC(C)(C)OCCC(=O)Nc1nc2cccnc2n1C1CCC1 [Example 3, 3-(tert-butoxy)-N-(3-cyclobutyl-3H-imidazo[4,5-b]pyridin-2-yl)propanamide] | +++ (>6-fold increase over baseline (+++)) | 
21 | CC(C)CC(=O)Nc1nc2ccc(Cl)nc2n1C1CCC1 [Example 28, N-(5-chloro-3-cyclobutyl-3H-imidazo[4,5-b]pyridin-2-yl)-3-methylbutanamide] | +++ (>6-fold increase over baseline (+++)) | 
22 | CC(C)(C)CC(=O)Nc1nc2ccc(C(F)(F)F)nc2n1C1CCC1 [Example 39, N-(3-cyclobutyl-5-(trifluoromethyl)-3H-imidazo[4,5-b]pyridin-2-yl)-3,3-dimethylbutanamide] | +++ (>6-fold increase over baseline (+++)) | 
23 | O=C(CC1CC2CCC1C2)Nc1nc2ccc(Cl)nc2n1C1CCC1 (stereo not shown) [Example 9, 2-(bicyclo[2.2.1]heptan-2-yl)-N-(5-chloro-3-cyclobutyl-3H-imidazo[4,5-b]pyridin-2-yl)acetamide] | +++ (>6-fold increase over baseline (+++)) | 
24 | CC1(C)[C@H]2CC[C@@H](CC(=O)Nc3nc4ccc(Cl)nc4n3C3CCC3)[C@@H]1C2 [Example 33, N-(5-chloro-3-cyclobutyl-3H-imidazo[4,5-b]pyridin-2-yl)-2-((1S,2S,5S)-6,6-dimethylbicyclo[3.1.1]heptan-2-yl)acetamide] | +++ (>6-fold increase over baseline (+++)) | 
